Test system: laminin 5
Experiment: Laminin 5 productivity evaluation test (keratinocyte culture, sandwich ELISA)
Format: cell-based, human
Conditions: for laminin 5 productivity potentiating action: result in words
Procedure: (1) Culture of Keratinocytes
Keratinocytes were isolated from the human preputium and cultured in an epidermal cell growth medium (KGM) having a low calcium concentration. To this culture medium were added bovine pituitary extract and EGF. After cultivation in KGM up to the fourth generation, the cells were treated with trypsin and EDTA to suspend adherent cells. Then, the culture was filtered to remove cell aggregates and thereby to obtain a homogeneous cell suspension. The cells were collected by centrifugation and resuspended in DMEM-F12 (2:I)-0.1% BSA so as to give a cell density of8×10^4 per ml. Each 0.5 ml of this cell suspension was added to 0.5 ml of the same medium containing a twofold concentration of each test sample. Using a 24-well plate, incubation was carried out at 37° C. for 24 hours. After completion of the incubation, the culture supernatant was transferred to an Eppendorf tube and centrifuged at 10,000 rpm for 5 minutes. The supernatant was transferred to a new tube and stored at −20° C. till the day for the determination of laminin 5. In order to solubilize laminin 5 in the cells and that bound to the culture plastics, a tris-HCl buffer (pH 7.4) containing various surfactants was added to each well and allowed to stand at −20° C. overnight. On the following day, the mixture was ultrasonicated and frozen again. On the following day, the mixture was thawed again and centrifuged at 10,000 rpm for 5 minutes. The supernatant was transferred to a tube and stored at −20° C. till the day for the determination of laminin 5.
(2) Determination of Laminin 5 by the Sandwich ELISA Method
Laminin 5 present in the culture supernatant and the cell layer was determined by the sandwich ELISA method. A monoclonal antibody (BM165) to the laminin α3 chain of laminin 5 was attached to a solid layer of a 96-well ELISA plate. In order to determine laminin 5 in sandwiched manner, a monoclonal antibody (6F12) to the laminin β3 chain was previously biotinized (b-6F12) and used as the other antibody. […] A sample was added to each of the wells in which a 3% gelatin-phosphate buffer solution containing b-6F12 had previously been placed. The final dilution ratio of the sample in the wells was ¼ for the culture medium and 1/10 for the cell layer. After the antigen-antibody reaction was carried out at 37° C. for 2 hours, the plate was washed, and an avidin HRP (horseradish peroxidase) solution was added thereto and reacted for a period of 30 minutes to 1 hour. After washing, a solution of ABTS serving as a substrate for HRP was added thereto and the absorbance at 405 nm was measured with an ELISA plate reader. A calibration curve was constructed over a range of 0 to 40 ng/ml.
The sum of the laminin 5 liberated into the culture medium and that remaining in the cell layer was calculated. The yield of laminin 5 was expressed by the relative value to that of the sample to which none of the plant extracts was added (control).

[1] = Table 3 (comparative example), concentration 1 μM
[2] = Table 3 (comparative example), concentration 10 μM
[3] = Table 3 (comparative example), concentration 100 μM

SMILES | Laminin 5 yield (%) Relative to the Control [1] [%] | Laminin 5 yield (%) Relative to the Control [2] [%] | Laminin 5 yield (%) Relative to the Control [3] [%] | laminin 5 productivity potentiating action | Laminin 5 yield (%) Relative to the Control (Table 2, concentration 1 μM) [%] | Laminin 5 yield (%) Relative to the Control (Table 2, concentration 10 μM) [%] | Laminin 5 yield (%) Relative to the Control (Table 2, concentration 0.1 μM) [%]
O=c1c(-c2ccc(O)cc2)coc2cc(O)ccc12 [Daidzein, 4′,7-dihydroxyisoflavone] | 93 | 99 | 74 | little or no laminin 5 productivity potentiating action |  |  | 
O=c1c(-c2ccc(O)c(O)c2)coc2c([C@@H]3O[C@H](CO)[C@@H](O)[C@H](O)[C@H]3O)c(O)ccc12 [Glucoside, 8-β-D-glucopyranosyl-7-hydroxy-3-(3′,4′-dihydroxyphenyl)-4H-1-benzopyran-4-one] | 93 | 95 | 99 |  |  |  | 
C[C@H]1[C@H](C)CC[C@]2(C)CC[C@]3(C)C4=C(CC[C@@]3(C)[C@H]12)[C@@]1(C)CC[C@H](O)C(C)(C)C1CC4 (stereo partly drawn) [Isobauerenol, isobauerenol] |  |  |  | exhibiting laminin 5 productivity potentiating action | 132 | 137 | 
C=C(C)[C@@H]1CC[C@]2(C)CC[C@]3(C)[C@H](CC[C@@H]4[C@@]5(C)CC[C@H](O)C(C)(C)[C@@H]5CC[C@]43C)[C@@H]12 [Lupeol, lupeol] |  |  |  | exhibiting laminin 5 productivity potentiating action | 154 |  | 122
O=c1c(-c2ccc(O)cc2)coc2c([C@@H]3O[C@H](CO)[C@@H](O)[C@H](O)[C@H]3O)c(O)ccc12 [Puerarin, daidzein-8-glucoside] |  |  |  | little or no laminin 5 productivity potentiating action |  |  | 
O=c1c(-c2ccc(O)cc2)coc2cc(O[C@@H]3O[C@H](CO)[C@@H](O)[C@H](O)[C@H]3O)ccc12 [daidzin, daidzein-7-glucoside] |  |  |  | little or no laminin 5 productivity potentiating action |  |  | 
